Source: patent US8222218B2, “Cyclopropanated carbohydrates” (Seton Hall University, priority 2008, dated 2012)
Where two headings read alike, the source gives them in different places.

What was measured:
Assay type in all cases: in vivo
[1] = test system: MES-induced seizures; assay: Maximal Electroshock Seizure (MES) test, mice; settings: for responders at 30 mg/kg / responders at 100 mg/kg / responders at 300 mg/kg: Mus musculus, ip
Description: The MES test is a model for generalized tonic-clonic seizures. The seizures are highly reproducible and electrophysiologically consistent with human seizures. The test provides information about a compound's ability to prevent the spread of seizure when all neuronal circuits of the brain are maximally active. 60 Hz of alternating current (50 mA in mice, 150 mA in rats) is applied for 2 seconds via corneal electrodes that have been treated with an electrolyte solution containing an anesthetic (0.5% tetracaine HCl). Mice are tested at a variety of intervals after an i.p. injection of […] solution of the test compound (commonly in a 0.5% solution of methylcellulose) at 30, 100, and 300 mg/kg doses. Rats are examined after a 30 mg/kg (per os, p.o.) dose that is applied in a volume of 0.04 mL/g. An animal is considered “protected” from MES-induced seizures upon removal of the hind limb extensor component of the seizure.
(§1) Male and female albino CF1 mice (18-25 g, Charles River, Portage, Mich.) and male albino Sprague-Dawley rats (275-300 g, kindling test; 100-150 g all other tests; Charles River, Raleigh, N.C.) were used as experimental animals.

[2] = test system: metrazole-induced clonic seizures; assay: Subcutaneous Metrazole Seizure Threshold Test (scMET), mice; settings: for responders at 30 mg/kg / responders at 100 mg/kg / responders at 300 mg/kg: Mus musculus, sc
Procedure: The subcutaneous injection of metrazole, which is a convulsant, produces clonic seizures in laboratory animals. The scMET test is designed to identify compounds that raise the seizure threshold of an animal. Mice are pretreated with test compound at 30, 100, and 300 mg/kg doses in a similar manner to the MES test. Rats are treated with a 50 mg/kg dose (p.o.). At the previously determined TPE of the test compound, the dose of metrazole that will induce convulsions in 97% of animals (CD97: 85 mg/kg mice) is injected into the loose fold of the skin in the midline of the neck. The animals are placed in isolation cages to minimize stress and observed for the next 30 minutes for the presence or absence of seizures. An episode of clonic spasms (approximately 3-5 seconds) of the fore and/or hindlimbs, jaws or vibrissae is taken as the endpoint.
as §1

[3] = Acute toxicity, minimal motor impairment (rotorod), mice; settings: mice, rotorod; for TOX 30 0.5 h (animals toxic/tested) / TOX 30 4 h (animals toxic/tested): 30 mg/kg; for TOX 100 0.5 h (animals toxic/tested) / TOX 100 4 h (animals toxic/tested): 100 mg/kg; for TOX 300 0.5 h (animals toxic/tested) / TOX 300 4 h (animals toxic/tested): 300 mg/kg
Procedure: Toxicity was measured using the minimal motor impairment test described below.
Animals are monitored for overt signs of impaired neurological or muscular function to assess a compound's toxicity. In mice, the rotorod procedure is used to disclose minimal muscular or neurological impairment. When a mouse is placed on a rotating rod (6 rpm), the animal can maintain its equilibrium for long periods of time. The animal is considered toxic if it falls off the rotating rod three times during a 1 minute period. In rats, minimal motor deficit is indicated by ataxia, which is manifested by an abnormal, uncoordinated gait.

[4] = 0.5 h, read-out: MES 30 0.5 h (animals protected/tested)
[5] = 0.5 h, read-out: MES 100 0.5 h (animals protected/tested)
[6] = 0.5 h, read-out: MES 300 0.5 h (animals protected/tested)
[7] = 4 h, read-out: MES 30 4 h (animals protected/tested)
[8] = 4 h, read-out: MES 100 4 h (animals protected/tested)
[9] = 4 h, read-out: MES 300 4 h (animals protected/tested)
[10] = 0.4 h, read-out: scMET 30 0.4 h (animals protected/tested)
[11] = 0.4 h, read-out: scMET 100 0.4 h (animals protected/tested)
[12] = 0.4 h, read-out: scMET 300 0.4 h (animals protected/tested)
[13] = 0.5 h, read-out: scMET 30 0.5 h (animals protected/tested)
[14] = 0.5 h, read-out: scMET 100 0.5 h (animals protected/tested)
[15] = 0.5 h, read-out: scMET 300 0.5 h (animals protected/tested)
[16] = mice, i.p., 30 mg/kg, 0.5 h, read-out: MES 30 0.5 h (animals protected/tested)
[17] = mice, i.p., 30 mg/kg, 4 h, read-out: MES 30 4 h (animals protected/tested)
[18] = mice, i.p., 100 mg/kg, 0.5 h, read-out: MES 100 0.5 h (animals protected/tested)
[19] = mice, i.p., 100 mg/kg, 4 h, read-out: MES 100 4 h (animals protected/tested)
[20] = mice, i.p., 300 mg/kg, 0.5 h, read-out: MES 300 0.5 h (animals protected/tested)
[21] = mice, i.p., 300 mg/kg, 4 h, read-out: MES 300 4 h (animals protected/tested)
[22] = mice, 30 mg/kg, 0.4 h, read-out: scMET 30 0.4 h (animals protected/tested)
[23] = mice, 30 mg/kg, 0.5 h, read-out: scMET 30 0.5 h (animals protected/tested)
[24] = mice, 100 mg/kg, 0.4 h, read-out: scMET 100 0.4 h (animals protected/tested)
[25] = mice, 100 mg/kg, 0.5 h, read-out: scMET 100 0.5 h (animals protected/tested)
[26] = mice, 300 mg/kg, 0.4 h, read-out: scMET 300 0.4 h (animals protected/tested)
[27] = mice, 300 mg/kg, 0.5 h, read-out: scMET 300 0.5 h (animals protected/tested)

Compound	responders at 30 mg/kg [1, 4] [%]	responders at 100 mg/kg [1, 5] [%]	TOX 30 0.5 h (animals toxic/tested) [3]	TOX 30 4 h (animals toxic/tested) [3]	TOX 100 0.5 h (animals toxic/tested) [3]	TOX 100 4 h (animals toxic/tested) [3]	TOX 300 0.5 h (animals toxic/tested) [3]	TOX 300 4 h (animals toxic/tested) [3]	responders at 30 mg/kg [1, 16] [%]	responders at 30 mg/kg [1, 17] [%]	responders at 100 mg/kg [1, 18] [%]	responders at 100 mg/kg [1, 19] [%]	responders at 300 mg/kg [1, 20] [%]	responders at 300 mg/kg [1, 21] [%]	responders at 30 mg/kg [2, 22] [%]	responders at 30 mg/kg [2, 23] [%]	responders at 100 mg/kg [2, 24] [%]	responders at 100 mg/kg [2, 25] [%]	responders at 300 mg/kg [2, 26] [%]	responders at 300 mg/kg [2, 27] [%]	further results
CCOC(=O)[C@@H]1[C@H]2O[C@@H]3CO[Si](C(C)(C)C)(C(C)(C)C)O[C@H]3/C(=N/O)[C@H]21 [Compound 4]	0	0	0/4	0/2	0/8	1/4	0/4	0/2													responders at 300 mg/kg [1, 6]: 0%; responders at 30 mg/kg [1, 7]: 0%; responders at 100 mg/kg [1, 8]: 0%; responders at 300 mg/kg [1, 9]: 0%; responders at 30 mg/kg [2, 10]: 0%; responders at 100 mg/kg [2, 11]: 0%; responders at 300 mg/kg [2, 12]: 0%; responders at 30 mg/kg [2, 13]: 0%; responders at 100 mg/kg [2, 14]: 0%; responders at 300 mg/kg [2, 15]: 0%
CCOC(=O)[C@@H]1[C@H]2O[C@@H]3CO[Si](C(C)(C)C)(C(C)(C)C)O[C@H]3[C@H](OS(=O)(=O)N(C)C)[C@H]21 [Compound 5, (1S,1as,2R,2aR,6aR,7aS)-4,4-di-tert-butyl-2-dimethylsulfamoyloxy-hexahydro-3,5,7-trioxa-4-sila-cyclopropa[b]naphthalene-1-carboxylic acid ethyl ester]	0	0	0/4	0/2	0/8	0/4	1/4	0/2													responders at 300 mg/kg [1, 6]: 0%; responders at 30 mg/kg [1, 7]: 0%; responders at 100 mg/kg [1, 8]: 0%; responders at 300 mg/kg [1, 9]: 0%; responders at 30 mg/kg [2, 10]: 0%; responders at 100 mg/kg [2, 11]: 0%; responders at 300 mg/kg [2, 12]: 0%; responders at 30 mg/kg [2, 13]: 0%; responders at 100 mg/kg [2, 14]: 0%; responders at 300 mg/kg [2, 15]: 0%
CCOC(=O)C1[C@@H]2[C@@H](O)[C@@H]3OC(C)(C)OC[C@H]3O[C@H]12 (stereo partly drawn) [Compound 6a, Ethyl (4aR,5aS,6aR,7R,7aS)-7-hydroxy-2,2-dimethylhexahydro-4H-cyclopropa[5,6]pyrano[3,2-d][1,3]dioxine-6-carboxylate]			0/4	0/2	0/8	0/4	0/4	0/2	0	0	0	0	0	0	0	0	0	0	0	0	
CCOC(=O)C1[C@@H]2[C@@H](OS(=O)(=O)N(C)C)[C@@H]3OC(C)(C)OC[C@H]3O[C@H]12 (stereo partly drawn) [Compound 8a, Ethyl (4aR,5aS,6aS,7R,7aR)-7-[(dimethlylsulfamoyl)oxy]-2,2-dimethylhexahydro-4H-cyclopropa[5,6]pyrano[3,2-d][1,3]dioxine-6-carboxylate]			0/4	0/2	0/8	0/4	1/4	0/2													MES 30 0.5 h (animals protected/tested) ([1]; mice, i.p., 30 mg/kg, 0.5 h): 0/1; MES 30 4 h (animals protected/tested) ([1]; mice, i.p., 30 mg/kg, 4 h): 0/1; MES 100 0.5 h (animals protected/tested) ([1]; mice, i.p., 100 mg/kg, 0.5 h): 0/3; MES 100 4 h (animals protected/tested) ([1]; mice, i.p., 100 mg/kg, 4 h): 0/3; MES 300 0.5 h (animals protected/tested) ([1]; mice, i.p., 300 mg/kg, 0.5 h): 0/1; MES 300 4 h (animals protected/tested) ([1]; mice, i.p., 300 mg/kg, 4 h): 0/1; scMET 30 0.4 h (animals protected/tested) ([2]; mice, 30 mg/kg, 0.4 h): 0/1; scMET 30 0.5 h (animals protected/tested) ([2]; mice, 30 mg/kg, 0.5 h): 0/1; scMET 100 0.4 h (animals protected/tested) ([2]; mice, 100 mg/kg, 0.4 h): 0/1; scMET 100 0.5 h (animals protected/tested) ([2]; mice, 100 mg/kg, 0.5 h): 0/1; scMET 300 0.4 h (animals protected/tested) ([2]; mice, 300 mg/kg, 0.4 h): 0/1; scMET 300 0.5 h (animals protected/tested) ([2]; mice, 300 mg/kg, 0.5 h): 0/1
CCOC(=O)C1[C@@H]2[C@@H](OS(N)(=O)=O)[C@@H]3OC(C)(C)OC[C@H]3O[C@H]12 (stereo partly drawn) [Compound 8b, ethyl (4aR,5aS,6aS,7R,7aR)-2,2-dimethyl-7-(sulfamoyloxy)hexahydro-4H-cyclopropa[5,6]pyrano[3,2-d][1,3]dioxine-6-carboxylate]			0/4	0/2	1/8	0/4	1/4	0/2	0	0	0	0	0	0	0	0	0	0	0	0	
CCOC(=O)[C@@H]1[C@H]2O[C@@H]3COC(C)(C)O[C@H]3[C@H](OC)[C@H]21 [Compound 9, Ethyl (4aR,5aS,6aS,7R,7aS)-7-methoxy-2.2-dimethylhexahydro-4H-cyclopropa[5,6]pyrano[3,2-d][1,3]dioxine-6-carboxylate]			0/4	0/2	0/8	0/4	0/4	0/2	0	0	0	0	0	0	0	0	0	0	0	0	
